This note sets out measurements from patent publication US20240279204A1, “NOVEL DIPHENAZINE COMPOUND, AND USE THEREOF FOR PREVENTING OR TREATING CANCER OR NEUROINFLAMMATORY DISEASES” (KOREA INSTITUTE OF OCEAN SCIENCE & TECHNOLOGY, priority 2021, published 2024).

One data set concerns HCT-15 (colon). Kind of data set: SRB cytotoxicity assay, HCT-15. In kind it is cell-based, human. Here is the method: (§1) A cytotoxicity test was evaluated using sulforhodamine B (SRB) assay on six human cancer cell lines. Human cancer cell lines, ACHN (kidney), NCI-H23 (lung), PC-3 (prostate), NUGC-3 (stomach), MDA-MB-231 (breast), and HCT-15 (colon) were purchased from American Type Culture Collection (ATCC). Cells were cultured in a RPMI 1640 medium added with 10% fetal bovine serum (FBS) at 37° C. in a 5% CO2 incubator. The cells (8×10^3 cells/well) were dispensed into a 96-well plate, cultured for one day, and then treated with Compounds 1-8 dissolved in 0.1% DMSO, (R)-(6-(1-((2-aminobenzoyl)oxy)ethyl)phenazine-1-carboxylic acid as Compound 9, and adriamycin as a positive control group. The cells were cultured for 48 hours, fixed with 50% trichloroacetic acid ([…]) and stained with 0.4% surfohodamine B dissolved in 1% acetic acid. Non-stained cells were removed by washing with 1% acetic acid, and cells bound to a protein were extracted with 10 mM Tris base (pH 10.5) to measure the optical density. Absorbance was measured at 540 nm using a microplate reader, and GI50 values were calculated using GraphPad Prism 4.0.

For a further data set, the system named is MDA-MB-231 (breast). Kind of data set: SRB cytotoxicity assay, MDA-MB-231. The format is cell-based, human. Here is the method:
as §1
(In general: Sulforhodamine B stains cellular protein and so reports cell mass.)

Another data set concerns NCI-H23 (lung). Kind of data set: SRB cytotoxicity assay, NCI-H23. In kind it is cell-based, human. How it is done:
as §1

The next data set relates to NUGC-3 (stomach). Kind of data set: SRB cytotoxicity assay, NUGC-3. Particulars: for GI50: SRB assay, 48 hours. In kind it is cell-based, human. Here is the method: as §1
The next data set deals with ACHN (kidney). Kind of data set: SRB cytotoxicity assay, ACHN. As to conditions: 48 hours. In kind it is cell-based, human. Here is the method:
as §1

Another data set relates to PC-3 (prostate). Kind of data set: SRB cytotoxicity assay, PC-3. The format is cell-based, human. Particulars: 48 hours. Here is the method:
as §1

Data set [1] has as its system LPS-induced BV-2 microglia. Kind of data set: NO generation inhibition in LPS-induced BV-2 microglia (Griess reagent). As to conditions: compound 1 hour then LPS 200 ng/mL for 24 hours, nitrite by Griess reagent, read-out: IC50 (μM), NO generation inhibitory activity by activated microglia. The format is cell-based. Here is the method: (§2) NO generation to confirm anti-brain neuroinflammatory activity was evaluated by measuring a nitrite concentration in the medium using a Griess reagent, and the cell viability was evaluated using MTT assay. Briefly, BV-2 microglia were cultured in a Dulbecco's modified Eagle's medium (DMEM) supplemented with 5% heat-inactivated FBS and 50 µg/mL of penicillin-streptomycin in a 5% CO2 incubator at 37° C. A 96-well plate dispensed with pre-cultured cells (2.5×10^4 cells/mL) was treated with compounds at various concentrations (10, 20, 50, and 100 μM) for 1 hour, and treated with LPS (200 ng/mL) and cultured for 24 hours. The supernatant was mixed with a Griess reagent and cultured at room temperature for 10 minutes. The nitrite concentration was determined using a sodium nitrite standard solution prepared in a cell culture medium. Absorbance was measured at a wavelength of 540 nm with a microplate reader. To evaluate the cell viability, the 96-well plate dispensed with cells (2.5×10^4 cells/mL) was treated with compounds at various concentrations (10, 20, 50, and 100 μM) for 1 hour, and treated with LPS (200 ng/mL) and cultured for 24 hours. An MTT solution (0.5 mg/mL) was added to each well and cultured at 37° C. for 4 hours. The supernatant was removed, and the formed formazan crystals were dissolved in DMSO. The absorbance was measured at 550 nm using a microplate reader. To determine the IC50 value of Compound 6, NO generation and MTT assay were performed in the same manner as described above, only with different concentrations (0.25, 0.5, and 1 μM) (Table 4). The experiment was repeated 3 times.
On the technique in general: Nitrite, measured by Griess reagent, commonly stands in for NO production.

Another data set deals with BV-2 microglia. Kind of data set: Cell viability of BV-2 microglia (MTT assay). In kind it is cell-based. Particulars: LPS 200 ng/mL, 24 hours. Here is the method:
as §2, with “To determine the IC50 value of Compound 6, NO generation and MTT assay were performed in the same manner as described above, only with different concentrations (0.25, 0.5, and 1 μM) (Table 4). The experiment was repeated 3 times.” left out
(Tetrazolium dyes change colour on reduction, which living cells bring about.)

Where [2] appears, read: Homo sapiens, MDA-MB-231, 48 hours.
The mark [3] stands for this setting: Homo sapiens, NCI-H23, 48 hours.
Where [4] appears, read: Homo sapiens, NUGC-3, read-out: GI50, NUGC-3.

Like-named read-outs stand apart in the source and are kept apart here.

Take `COc1cccc2c1C(=O)c1c(O)c3c(c(O)c1C2=O)C[C@@](O)(C(=O)CO)C[C@@H]3O[C@H]1C[C@H](N)[C@H](O)[C@H](C)O1` [ADR, Adriamycin, reference compound]: the concentration for 50% growth inhibition (GI50) in the data set with HCT-15 (colon) (Homo sapiens, HCT-15, 48 hours) came out at 0.17 µM; in the data set on MDA-MB-231 (breast) (setting [2]), 0.15 µM; in the data set on NCI-H23 (lung) (setting [3]) it was 0.16 µM; in the data set with NUGC-3 (stomach) (setting [4]), 0.15 µM; with ACHN (kidney) (Homo sapiens, ACHN) it was 0.17 µM; in the data set on PC-3 (prostate) (Homo sapiens) it was 0.16 µM.
With `C[C@H](c1cccc2nc3c(C(=O)O)cccc3nc12)c1ccc(C(=O)O)c2nc3cccc([C@@H](C)O)c3nc12` [Compound 1, 4-((R)-1-(6-carboxyphenazin-1-yl)ethyl)-6-((R)-1-hydroxyethyl)phenazine-1-carboxylic acid], the GI50 with HCT-15 (colon) (Homo sapiens, HCT-15, 48 hours) is greater than 10 µM; with MDA-MB-231 (breast) (setting [2]), greater than 10 µM; with NCI-H23 (lung) (setting [3]) it was greater than 10 µM; in the data set with NUGC-3 (stomach) (setting [4]), greater than 10 µM; in the data set on ACHN (kidney) (Homo sapiens, ACHN) it was greater than 10 µM; with PC-3 (prostate) (Homo sapiens) it was greater than 10 µM. Also, the IC50 in data set [1] (Mus musculus) was 166 µM.
For the molecule `C[C@@H](c1cccc2nc3c(C(=O)O)cccc3nc12)c1ccc(C(=O)O)c2nc3cccc([C@@H](C)O)c3nc12` [Compound 2, 4-((S)-1-(6-carboxyphenazin-1-yl)ethyl)-6-((R)-1-hydroxyethyl)phenazine-1-carboxylic acid], the GI50 with HCT-15 (colon) (Homo sapiens, HCT-15, 48 hours) was greater than 10 µM; in the data set on MDA-MB-231 (breast) (setting [2]), greater than 10 µM; in the data set with NCI-H23 (lung) (setting [3]) it was greater than 10 µM; with NUGC-3 (stomach) (setting [4]), greater than 10 µM; with ACHN (kidney) (Homo sapiens, ACHN), greater than 10 µM; with PC-3 (prostate) (Homo sapiens), greater than 10 µM. Further, the IC50 in data set [1] (Mus musculus) came to 90.2 µM.
`CC(=O)c1cccc2nc3c(C(=O)O)ccc([C@H](C)c4cccc5nc6c(C(=O)O)cccc6nc45)c3nc12` [Compound 3, (R)-6-acetyl-4-(1-(6-carboxyphenazin-1-yl)ethyl)phenazine-1-carboxylic acid]: the GI50 was greater than 10 µM in the data set on HCT-15 (colon) (Homo sapiens, HCT-15, 48 hours); greater than 10 µM in the data set with MDA-MB-231 (breast) (setting [2]); greater than 10 µM in the data set with NCI-H23 (lung) (setting [3]); greater than 10 µM with NUGC-3 (stomach) (setting [4]); greater than 10 µM in the data set with ACHN (kidney) (Homo sapiens, ACHN); greater than 10 µM in the data set on PC-3 (prostate) (Homo sapiens). Also, the IC50 in data set [1] (Mus musculus) is 34.7 µM.
With `C[C@@H](c1cc(C(=O)O)c2nc3cccc([C@@H](C)O)c3nc2c1)c1cccc2nc3c(C(=O)O)cccc3nc12` [Compound 4, 3-((S)-1-(6-carboxyphenazin-1-yl)ethyl)-6-((R)-1-hydroxyethyl)phenazine-1-carboxylic acid], the GI50 was greater than 10 µM with HCT-15 (colon) (Homo sapiens, HCT-15, 48 hours); greater than 10 µM in the data set on MDA-MB-231 (breast) (setting [2]); greater than 10 µM in the data set with NCI-H23 (lung) (setting [3]); greater than 10 µM in the data set on NUGC-3 (stomach) (setting [4]); greater than 10 µM in the data set with ACHN (kidney) (Homo sapiens, ACHN); greater than 10 µM in the data set with PC-3 (prostate) (Homo sapiens). Moreover, the IC50 in data set [1] (Mus musculus) was found to be 126 µM.
For the molecule `C[C@H](c1cc([C@@H](C)O)c2nc3cccc(C(=O)O)c3nc2c1)c1cccc2nc3c(C(=O)O)cccc3nc12` [Compound 5, 8-((R)-1-(6-carboxyphenazin-1-yl)ethyl)-6-((R)-1-hydroxyethyl)phenazine-1-carboxylic acid], the GI50 with HCT-15 (colon) (Homo sapiens, HCT-15, 48 hours) was greater than 10 µM; in the data set on MDA-MB-231 (breast) (setting [2]), greater than 10 µM; in the data set on NCI-H23 (lung) (setting [3]) it was greater than 10 µM; with NUGC-3 (stomach) (setting [4]), greater than 10 µM; with ACHN (kidney) (Homo sapiens, ACHN), greater than 10 µM; with PC-3 (prostate) (Homo sapiens) it was greater than 10 µM. Besides, the IC50 in data set [1] (Mus musculus) was found to be 27.4 µM.
In the case of `C[C@@H](O)c1cccc2nc3c(C(=O)O[C@H](C)c4cccc5nc6c(C(=O)O)cccc6nc45)cccc3nc12` [Compound 6, 6-((R)-1-((6-((R)-1-hydroxyethyl)phenazine-1-carbonyl)oxy)ethyl)phenazine-1-carboxylic acid], the GI50 in the data set on HCT-15 (colon) (Homo sapiens, HCT-15, 48 hours) stood at 0.0096 µM; in the data set on MDA-MB-231 (breast) (setting [2]), 0.0096 µM; in the data set with NCI-H23 (lung) (setting [3]), 0.0096 µM; with NUGC-3 (stomach) (setting [4]), 0.0077 µM; with NUGC-3 (stomach) (Homo sapiens, NUGC-3, read-out: GI50 value, gastric cancer cells NUGC-3), 0.0077 µM; in the data set on ACHN (kidney) (Homo sapiens, ACHN) it was 0.0135 µM. Also, the GI50 in the data set with PC-3 (prostate) (Homo sapiens) turned out to be 0.0096 µM. Besides, the “cytotoxicity in cell viability test” value in the data set on BV-2 microglia was “strong cytotoxicity up to a concentration of 1 μM”. Further, the “cytotoxicity stronger than Adriamycin, NUGC-3” value in the data set on NUGC-3 (stomach) (ratio of GI50 versus Adriamycin) is 19 times. Besides, the IC50 in data set [1] (Mus musculus) stood at 0.3 µM.
For `CC(=O)c1cccc2nc3c(C(=O)O[C@H](C)c4cccc5nc6c(C(=O)O)cccc6nc45)cccc3nc12` [Compound 7, (R)-6-(1-((6-acetylphenazine-1-carbonyl)oxy)ethyl)phenazine-1-carboxylic acid], the GI50 with HCT-15 (colon) (Homo sapiens, HCT-15, 48 hours) is 0.0601 µM; in the data set with MDA-MB-231 (breast) (setting [2]), 0.0523 µM; with NCI-H23 (lung) (setting [3]) it was 0.0426 µM; in the data set on NUGC-3 (stomach) (setting [4]), 0.0349 µM; in the data set with ACHN (kidney) (Homo sapiens, ACHN), 0.0717 µM; in the data set with PC-3 (prostate) (Homo sapiens), 0.0465 µM.
For `C[C@@H](O)c1cccc2nc3c(C(=O)O)cccc3nc12` [Compound 8, (R)-Saphenic acid], the GI50 in the data set with HCT-15 (colon) (48 hours) was greater than 10 µM; with MDA-MB-231 (breast) (48 hours), greater than 10 µM; with NCI-H23 (lung) (48 hours), greater than 10 µM; in the data set with NUGC-3 (stomach) (read-out: GI50, NUGC-3) it was greater than 10 µM; in the data set on ACHN (kidney), greater than 10 µM; in the data set with PC-3 (prostate) it was greater than 10 µM. Further, in data set [1], the IC50 is 16.3 µM.
Take `C[C@@H](OC(=O)c1ccccc1N)c1cccc2nc3c(C(=O)O)cccc3nc12` [Compound 9]: the GI50 was greater than 10 µM in the data set on HCT-15 (colon) (48 hours); greater than 10 µM with MDA-MB-231 (breast) (48 hours); greater than 10 µM in the data set on NCI-H23 (lung) (48 hours); greater than 10 µM in the data set on NUGC-3 (stomach) (read-out: GI50, NUGC-3); greater than 10 µM in the data set on ACHN (kidney); greater than 10 µM with PC-3 (prostate). In addition, the IC50 in data set [1] was 23.5 µM.

For orientation: GI50 means the concentration at which growth is held to half of that of the control.
